Measured values taken from ChEMBL document CHEMBL1150207, “Cytotoxicities of some flavonoid analogues” (1991).
Values after ≈ are worked out from the molar mass of the structure shown.

Legend:
Type in all cases: functional
A549 = assay: Cytotoxicity against human A549 cells after 6 days by MTT assay; details: A549, 144 h, read-out: ED50 (the source's name)
MCF7 = assay: Cytotoxicity against human MCF7 cells after 6 days by MTT assay; details: MCF7, 144 h, read-out: ED50 (the source's name)
HT-29 = assay: Cytotoxicity against human HT-29 cells after 6 days by MTT assay; details: HT-29, 144 h, read-out: ED50 (the source's name)
SK-MEL = assay: Cytotoxicity against human SK-MEL cells after 6 days by MTT assay; details: 144 h, read-out: ED50 (the source's name)
Malme-3M = assay: Cytotoxicity against human MALME-3M cells after 6 days by MTT assay; details: 144 h, read-out: ED50 (the source's name)

**Q.** With `O=c1cc(-c2ccc([N+](=O)[O-])cc2)oc2cc(O)cc(O)c12` as the molecule, how does the EC50 (A549) read?
**A.** Its EC50 is 4.19 µg/mL (≈ 14 µM).

**Q.** And the EC50 (MCF7)?
**A.** Its EC50 is 6.9 µg/mL (≈ 23.1 µM).

**Q.** What about the EC50 (HT-29) of the same molecule?
**A.** Its EC50 is 3.34 µg/mL (≈ 11.2 µM).

**Q.** What about the EC50 (SK-MEL) of the same molecule?
**A.** Its EC50 is 4.87 µg/mL (≈ 16.3 µM).

**Q.** And the EC50 (Malme-3M)?
**A.** The EC50 was greater than 25 µg/mL.

**Q.** How did the EC50 (A549) turn out when `COc1cc(-c2cc(=O)c3ccc(O)cc3o2)cc(OC)c1O[Si](C)(C)C(C)(C)C` was run?
**A.** Its EC50 is 5.3 µg/mL (≈ 12.4 µM).

**Q.** What about the EC50 (MCF7) of the same molecule?
**A.** Its EC50 is 4.47 µg/mL (≈ 10.4 µM).

**Q.** And the EC50 (HT-29)?
**A.** The EC50 was 1 µg/mL (≈ 2.33 µM).

**Q.** What about the EC50 (SK-MEL) of the same molecule?
**A.** The EC50 was greater than 25 µg/mL.

**Q.** What about the EC50 (Malme-3M) of the same molecule?
**A.** Its EC50 is greater than 25 µg/mL.
